Values belong to the compound of their own block, whether it stands above or below them.
Experiments:
[1] = Log D pH 7.4 measurement (n-octanol/PBS); assay type: physicochemical; details: n-octanol/PBS pH 7.4
Procedure: The samples were vortexed for 20 min and centrifuged at 6000 rpm for 5 min. Aliquots (0.1 mL) were subsequently removed from both the aqueous and the organic n-octanol layers and counted separately in a γ counter (Wallac Wizard 1470 automatic γ counter). Measurements represent three separate experiments with four extractions in each set for a total of twelve data points. The partition coefficients were then calculated using the equation D=(activity concentration in n-octanol)/(activity concentration in aqueous layer).

[2] = Biodistribution study of 123I-TAAG in normal Balb/c mice; assay type: in vivo; details: tail vein injection
Source text: Animals were anesthetized with 3% isoflurane and euthanized by cervical dislocation. Blood, heart, lungs, liver, spleen, kidneys, adrenals, stomach (with contents), large intestine and caecum (with contents) and small intestines (with contents), bladder and urine, thyroid/trachea, bone, skeletal muscle and tail were collected, weighed and counted in a Perkin Elmer Wizard 1470 Automatic Gamma Counter. Decay correction was used to normalize organ activity measurements to time of dose preparation for data calculations with respect to injected dose (i.e. % ID/g).

[3] = Stability of I-TAAG construct in solution; assay type: physicochemical; details: 48 hours
Procedure: Reactions were complete within 10 min and the product was isolated by solid-phase extraction or semi-preparative HPLC.

LNCaP tumours = test: SPECT-CT imaging study of 123I-TAAG-PSMA; assay type: in vivo, NCr mice
Procedure: Prior to imaging, mice were anaesthetized with 2.5% isoflurane and maintained under same conditions for the length of the SPECT and CT scans. Imaging was conducted on the first mouse at 2 and 6 hours post injection and on the second mouse at 4 and 23 hours post injection. At each time point, multiple SPECT acquisitions were completed for 32 frames at 10 sec/frame for the 2 hour time point, 20 sec/frame for the 4 and 6 hour time point or 30 sec/frame for the 23 hour time point on a GammaMedica Ideas X-SPECT system (North Ridge, Calif.). CT acquisitions consisted of 512 projections acquired over 360° with 75 Kvp, 205 mA cone beam CT system. Cobra Exxim software (Feldkamp filtered backprojection cone beam reconstruction software) was used to reconstruct the images at a voxel size of 155 microns and a matrix size of 512^3. An OS-EM interactive reconstructed method (2 iterations/8 subsets) was used to reconstruct the SPECT data which was fused to the CT data using in-house software. AMIDE software was used to analyze the images.

LNCaP xenografts = test: Biodistribution study of 123I-TAAG-PSMA in NCr nude mice bearing LNCaP xenografts; assay type: in vivo, NCr nude mice
Procedure: LNCaP cells derived from lymph node metastases of human prostate carcinoma were purchased from ATCC. Cells were propagated using RPMI 1640 media supplemented with 10% Fetal Bovine Serum, 4 mM L-glutamine, 1 mM Sodium Pyruvate, 10 mM Hepes, 1% Penicillin Streptomycin (Invitrogen, Mississauga ON) and 0.25% D-glucose (Sigma, Oakville ON) and grown at 37° C. and 5% CO2. NCr nude homo male mice ordered from Taconic (Germantown, N.Y., USA) were injected with 2.0×10^6 LNCaP cells in 100 μL Matrigel/DPBS (1:1) subcutaneously into the right flank at 7 to 8 weeks of age. […] Animals were anesthetized with 3% isoflurane and euthanized by cervical dislocation. Blood, bone, liver, gall bladder, spleen, small intestine (with contents), large intestine and caecum (with contents), bladder, urine, skeletal muscle, brain, LNCaP tumour, heart, lung, salivary glands, kidneys, stomach (with contents), prostate, thyroid/trachea, adrenals, esophagus, tail, adipose and testes were collected, weighed and counted in a Perkin Elmer Wizard 1470 Automatic Gamma Counter. Decay correction was used to normalize organ activity measurements to time of dose preparation for data calculations with respect to injected dose (i.e. % ID/g).

[4] = at pH 7.4; comparison value; cited from earlier work
[5] = 1 hr + block (PMPA 10 mg/kg), NCr nude mice bearing LNCaP xenografts, mean ± SEM
[6] = male, NCr nude, mouse, in vivo, 1 h
[7] = male, NCr nude, mouse, in vivo, 23 h
[8] = male, NCr nude, mouse, in vivo, 24 h

logD [1]: -2.58 ± 0.01
Structure (SMILES): O=C(O)Cn1cc(I)nn1 [^123I-TAAG, 2-(4-iodo-1H-1,2,3-triazol-1-yl)acetic acid]
clearance from organs (biodistribution) [2]: clears all major organs quickly and collects in the bladder within 30 minutes
stability in solution [3]: stable over 48 hours in solution with no signs of deiodination

Structure (SMILES): O=C(O)CC[C@H](NC(=O)N[C@@H](CCCCNC(=O)Cn1cc(I)nn1)C(=O)O)C(=O)O [^123I-TAAG-PSMA, (S)-2-(3-((S)-1-carboxy-5-(2-(4-iodo-1H-1,2,3-triazol-1-yl)acetamido)pentyl)ureido)pentanedioic acid]
logD [1]: -3.23 ± 0.05
SPECT-CT image uptake (LNCaP tumours; 23-24 hours post injection): the activity was found only in the tumour and in the thyroid
SPECT-CT image uptake (LNCaP tumours; two hours post injection): uptake of the agent in the kidneys, bladder and a small amount in the tumour
Tissue distribution, Adipose (LNCaP xenografts; [5]): 0.35 ± 0.21 % ID/g
Tissue distribution, Adrenals (LNCaP xenografts; [5]): 3.34 ± 1.49 % ID/g
Tissue distribution, Bladder (LNCaP xenografts; [5]): 10.78 ± 4.16 % ID/g
Tissue distribution, Blood (LNCaP xenografts; [5]): 0.32 ± 0.06 % ID/g
Tissue distribution, Bone (LNCaP xenografts; [5]): 0.26 ± 0.02 % ID/g
Tissue distribution, Brain (LNCaP xenografts; [5]): 0.05 ± 0.02 % ID/g
Tissue distribution, Esophagus (LNCaP xenografts; [5]): 0.32 ± 0.04 % ID/g
Tissue distribution, Gall Bladder (LNCaP xenografts; [5]): 1.32 ± 0.53 % ID/g
Tissue distribution, Heart (LNCaP xenografts; [5]): 0.15 ± 0.04 % ID/g
Tissue distribution, Kidneys (LNCaP xenografts; [5]): 9.57 ± 5.17 % ID/g
Tissue distribution, Large Intestine + Caecum (LNCaP xenografts; [5]): 0.12 ± 0.03 % ID/g
Tissue distribution, Liver (LNCaP xenografts; [5]): 2.25 ± 0.29 % ID/g
Tissue distribution, Lung (LNCaP xenografts; [5]): 0.36 ± 0.08 % ID/g
Tissue distribution, Prostate (LNCaP xenografts; [5]): 3.85 ± 2.91 % ID/g
Tissue distribution, Salivary Glands (LNCaP xenografts; [5]): 0.52 ± 0.12 % ID/g
Tissue distribution, Skeletal Muscle (LNCaP xenografts; [5]): 0.19 ± 0.03 % ID/g
Tissue distribution, Small Intestine (LNCaP xenografts; [5]): 0.30 ± 0.09 % ID/g
Tissue distribution, Spleen (LNCaP xenografts; [5]): 0.13 ± 0.03 % ID/g
Tissue distribution, Stomach (LNCaP xenografts; [5]): 0.49 ± 0.07 % ID/g
Tissue distribution, Testes (LNCaP xenografts; [5]): 1.16 ± 1.05 % ID/g
Tissue distribution, Thyroid/Trachea (LNCaP xenografts; [5]): 0.62 ± 0.24 % ID/g
Tissue distribution, Urine (LNCaP xenografts; [5]): 486.70 ± 163.60 % ID/g
Tissue distribution, Adipose (LNCaP xenografts; [6]): 1.73 ± 0.26 % ID/g
Tissue distribution, Adrenals (LNCaP xenografts; [6]): 8.45 ± 2.13 % ID/g
Tissue distribution, Bladder (LNCaP xenografts; [6]): 1.78 ± 0.23 % ID/g
Tissue distribution, Blood (LNCaP xenografts; [6]): 0.81 ± 0.07 % ID/g
Tissue distribution, Bone (LNCaP xenografts; [6]): 0.41 ± 0.07 % ID/g
Tissue distribution, Brain (LNCaP xenografts; [6]): 0.06 ± 0.01 % ID/g
Tissue distribution, Esophagus (LNCaP xenografts; [6]): 1.3 ± 0.26 % ID/g
Tissue distribution, Gall Bladder (LNCaP xenografts; [6]): 1.28 ± 0.26 % ID/g
Tissue distribution, Heart (LNCaP xenografts; [6]): 0.85 ± 0.29 % ID/g
Tissue distribution, Kidneys (LNCaP xenografts; [6]): 137.54 ± 11.43 % ID/g
Tissue distribution, Large Intestine + Caecum (LNCaP xenografts; [6]): 0.27 ± 0.06 % ID/g
Tissue distribution, Liver (LNCaP xenografts; [6]): 2.32 ± 0.28 % ID/g
Tissue distribution, Lung (LNCaP xenografts; [6]): 2.58 ± 0.46 % ID/g
Tissue distribution, Prostate (LNCaP xenografts; [6]): 1.89 ± 0.62 % ID/g
Tissue distribution, Salivary Glands (LNCaP xenografts; [6]): 2.97 ± 0.95 % ID/g
Tissue distribution, Skeletal Muscle (LNCaP xenografts; [6]): 0.33 ± 0.04 % ID/g
Tissue distribution, Small Intestine (LNCaP xenografts; [6]): 0.64 ± 0.13 % ID/g
Tissue distribution, Spleen (LNCaP xenografts; [6]): 4.98 ± 1.31 % ID/g
Tissue distribution, Stomach (LNCaP xenografts; [6]): 0.90 ± 0.07 % ID/g
Tissue distribution, Testes (LNCaP xenografts; [6]): 0.69 ± 0.10 % ID/g
Tissue distribution, Thyroid/Trachea (LNCaP xenografts; [6]): 1.46 ± 0.3 % ID/g
Tissue distribution, Urine (LNCaP xenografts; [6]): 43.99 ± 5.54 % ID/g
Tumor to tissue ratio, Tumour/blood (LNCaP xenografts; [6]): 28.22 ± 7.12
Tumor to tissue ratio, Tumour/skeletal muscle (LNCaP xenografts; [6]): 78.06 ± 30.62
activity retained in the tumour (LNCaP xenografts; [7]): 15 % ID/g
remaining activity in the thyroid (LNCaP xenografts; [7]): about 10 % ID/g
Tissue distribution, Adipose (LNCaP xenografts; [8]): 0.02 ± 0.01 % ID/g
Tissue distribution, Adrenals (LNCaP xenografts; [8]): 0.33 ± 0.07 % ID/g
Tissue distribution, Bladder (LNCaP xenografts; [8]): 0.08 ± 0.02 % ID/g
Tissue distribution, Blood (LNCaP xenografts; [8]): 0.01 ± 0.00 % ID/g
Tissue distribution, Bone (LNCaP xenografts; [8]): 0.04 ± 0.01 % ID/g
Tissue distribution, Brain (LNCaP xenografts; [8]): 0.03 ± 0.00 % ID/g
Tissue distribution, Esophagus (LNCaP xenografts; [8]): 0.07 ± 0.01 % ID/g
Tissue distribution, Gall Bladder (LNCaP xenografts; [8]): 0.19 ± 0.08 % ID/g
Tissue distribution, Heart (LNCaP xenografts; [8]): 0.01 ± 0.00 % ID/g
Tissue distribution, Kidneys (LNCaP xenografts; [8]): 0.99 ± 0.27 % ID/g
Tissue distribution, LNCap Tumour (LNCaP xenografts; [8]): 15.31 ± 4.23 % ID/g
Tissue distribution, Large Intestine + Caecum (LNCaP xenografts; [8]): 0.04 ± 0.01 % ID/g
Tissue distribution, Liver (LNCaP xenografts; [8]): 0.03 ± 0.01 % ID/g
Tissue distribution, Lung (LNCaP xenografts; [8]): 0.01 ± 0.00 % ID/g
Tissue distribution, Prostate (LNCaP xenografts; [8]): 0.09 ± 0.03 % ID/g
Tissue distribution, Salivary Glands (LNCaP xenografts; [8]): 0.05 ± 0.01 % ID/g
Tissue distribution, Skeletal Muscle (LNCaP xenografts; [8]): 0.01 ± 0.00 % ID/g
Tissue distribution, Small Intestine (LNCaP xenografts; [8]): 0.02 ± 0.01 % ID/g
Tissue distribution, Spleen (LNCaP xenografts; [8]): 0.03 ± 0.00 % ID/g
Tissue distribution, Stomach (LNCaP xenografts; [8]): 0.07 ± 0.03 % ID/g
Tissue distribution, Testes (LNCaP xenografts; [8]): 0.01 ± 0.00 % ID/g
Tissue distribution, Thyroid/Trachea (LNCaP xenografts; [8]): 9.36 ± 1.05 % ID/g
Tissue distribution, Urine (LNCaP xenografts; [8]): 1.04 ± 0.39 % ID/g
Tumor to tissue ratio, Tumour/blood (LNCaP xenografts; [8]): 1867 ± 499.72
Tumor to tissue ratio, Tumour/skeletal muscle (LNCaP xenografts; [8]): 1531 ± 422.74

Structure (SMILES): O=C(O)c1ccc(I)cc1 [p-iodobenzoic acid]
log D [4]: 0.07
